These results are taken from patent US20260138969A1 (Korea Research Institute of Chemical Technology, priority 2023, published 2026).

This assay concerns the target T1, recombinant human ASK1 protein (Homo sapiens, UniProt Q99683).
T1 sequence (Q99683 1-1374): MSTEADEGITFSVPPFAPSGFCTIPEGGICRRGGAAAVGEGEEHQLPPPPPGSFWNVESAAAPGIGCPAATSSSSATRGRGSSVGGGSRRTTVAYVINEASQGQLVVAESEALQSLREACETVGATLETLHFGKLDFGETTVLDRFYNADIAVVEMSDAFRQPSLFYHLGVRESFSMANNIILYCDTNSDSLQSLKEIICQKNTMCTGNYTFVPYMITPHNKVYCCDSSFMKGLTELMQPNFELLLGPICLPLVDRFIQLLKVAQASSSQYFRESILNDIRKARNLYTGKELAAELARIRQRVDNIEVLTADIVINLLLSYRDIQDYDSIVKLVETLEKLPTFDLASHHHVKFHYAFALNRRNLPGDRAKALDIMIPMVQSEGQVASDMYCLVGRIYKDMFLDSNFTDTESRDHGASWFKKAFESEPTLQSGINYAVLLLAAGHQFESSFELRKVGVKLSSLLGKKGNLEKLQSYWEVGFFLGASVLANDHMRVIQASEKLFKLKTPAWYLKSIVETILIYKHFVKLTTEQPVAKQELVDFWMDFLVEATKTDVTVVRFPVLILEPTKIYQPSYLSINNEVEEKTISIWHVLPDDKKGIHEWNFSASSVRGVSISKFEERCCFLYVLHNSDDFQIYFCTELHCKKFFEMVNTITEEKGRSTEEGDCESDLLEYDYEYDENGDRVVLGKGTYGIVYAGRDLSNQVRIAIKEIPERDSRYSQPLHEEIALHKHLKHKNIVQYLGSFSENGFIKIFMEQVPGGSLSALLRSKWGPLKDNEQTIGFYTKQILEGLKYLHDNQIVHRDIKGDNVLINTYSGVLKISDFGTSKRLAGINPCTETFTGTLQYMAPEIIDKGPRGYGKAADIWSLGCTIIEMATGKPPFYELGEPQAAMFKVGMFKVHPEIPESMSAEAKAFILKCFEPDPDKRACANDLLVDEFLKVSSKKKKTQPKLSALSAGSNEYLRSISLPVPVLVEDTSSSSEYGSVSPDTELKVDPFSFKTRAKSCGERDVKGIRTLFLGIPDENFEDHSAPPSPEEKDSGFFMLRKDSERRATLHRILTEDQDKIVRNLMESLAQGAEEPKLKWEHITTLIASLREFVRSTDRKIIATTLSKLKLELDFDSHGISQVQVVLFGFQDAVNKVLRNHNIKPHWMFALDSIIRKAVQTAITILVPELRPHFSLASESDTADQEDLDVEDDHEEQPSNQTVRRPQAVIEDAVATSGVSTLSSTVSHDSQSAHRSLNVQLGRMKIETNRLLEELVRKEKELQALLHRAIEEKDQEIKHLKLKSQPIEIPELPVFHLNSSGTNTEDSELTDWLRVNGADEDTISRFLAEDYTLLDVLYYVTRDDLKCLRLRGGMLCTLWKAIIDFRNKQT
In words: Evaluation of ASK1 inhibition activity ([gamma-33P]-ATP, scintillation counting). To be noted: for remaining activity at 0.5 µM: activity of group without compound set at 100%, read-out: Remaining kinase activity (%) at 0.5 uM. It counts as biochemical. How it is done:
The recombinant human ASK1 protein was initiated by adding a mixture of Mg/ATP to the reaction solution (8 mM MOPS PH 7.0, 0.2 mM EDTA, 0.33 mg/mL myelin basic protein, 10 mM Mg Acetate and [gamma-33P]-ATP), and the reaction was terminated by adding 0.5% phosphoric acid after 40 min at room temperature.

What is called remaining activity is the activity still measured, relative to the control. The IC50 is the concentration that gives 50% inhibition.

`O=C(Nc1cccc(-n2nnc3c2CCC3)n1)c1cc(-n2cnc(C3CC3)c2)ccc1OC1CC1` [Example 22, 2-cyclopropoxy-5-(4-cyclopropyl-1H-imidazol-1-yl)-N-(6-(5,6-dihydrocyclopenta[d][1,2,3]triazol-1 (4H)-yl)pyridin-2-yl)benzamide]: the remaining activity at 0.5 µM is 24%.

On to `O=C(Nc1cccc(-n2nnc3c2CCC3)n1)c1cc(-n2cnc(C3CC3)c2)ccc1OC(F)F` [Example 26, 5-(4-cyclopropyl-1H-imidazol-1-yl)-2-(difluoromethoxy)-N-(6-(5,6-dihydrocyclopenta[d][1,2,3]triazol-1 (4H)-yl)pyridin-2-yl)benzamide], for which the remaining activity at 0.5 µM was 1%.

In the case of `Cc1cc(OC(C)C)c(C(=O)Nc2cccc(-n3nnc4c3CCC4)n2)cc1-n1cnc(C2CC2)c1` [Example 12, 5-(4-cyclopropyl-1H-imidazol-1-yl)-N-(6-(5,6-dihydrocyclopenta[d][1,2,3]triazol-1 (4H)-yl)pyridin-2-yl)-2-isopropoxy-4-methylbenzamide], the remaining activity at 0.5 µM was 0%.

For the compound `O=C(Nc1cccc(-n2nnc3c2CCCC3)n1)c1cc(-n2cnc(C3CC3)c2)ccc1OC1CC1` [Example 23, 2-cyclopropoxy-5-(4-cyclopropyl-1H-imidazol-1-yl)-N-(6-(4,5,6,7-tetrahydro-1H-benzo[d][1,2,3]triazol-1-yl)pyridin-2-yl)benzamide], the remaining activity at 0.5 µM came out at 38%.

Take `O=C(Nc1cccc(-n2nnc3c2CCC3)n1)c1cc(-n2cnc(C3CC3)c2)ccc1OC(F)(F)F` [Example 24, 5-(4-cyclopropyl-1H-imidazol-1-yl)-N-(6-(5,6-dihydrocyclopenta[d][1,2,3]triazol-1 (4H)-yl)pyridin-2-yl)-2-(trifluoromethoxy)benzamide]: the remaining activity at 0.5 µM was 5%.

`O=C(Nc1cccc(-n2nnc3c2CCCC3)n1)c1cc(-n2cnc(C3CC3)c2)ccc1OC(F)(F)F` [Example 25, 5-(4-cyclopropyl-1H-imidazol-1-yl)-N-(6-(4,5,6,7-tetrahydro-1H-benzo[d][1,2,3]triazol-1-yl)pyridin-2-yl)-2-(trifluoromethoxy)benzamide]: the remaining activity at 0.5 µM is 14%.

Take `Cc1cc(OC(C)C)c(C(=O)Nc2cccc(-n3nnc4c3CCCC4)n2)cc1-n1cnc(C2CC2)c1` [Example 13, 5-(4-cyclopropyl-1H-imidazol-1-yl)-2-isopropoxy-4-methyl-N-(6-(4,5,6,7-tetrahydro-1H-benzo[d][1,2,3]triazol-1-yl)pyridin-2-yl)benzamide]: the remaining activity at 0.5 µM was determined as 9%.

For the compound `CCOc1cc(C)c(-n2cnc(C3CC3)c2)cc1C(=O)Nc1cccc(-n2nnc3c2CCC3)n1` [Example 10, 5-(4-cyclopropyl-1H-imidazol-1-yl)-N-(6-(5,6-dihydrocyclopenta[d][1,2,3]triazol-1 (4H)-yl)pyridin-2-yl)-2-ethoxy-4-methylbenzamide], the remaining activity at 0.5 µM was 14%.

In the case of `Cc1cc(F)c(C(=O)Nc2cccc(-n3nnc4c3CCCCCC4)n2)cc1-n1cnc(C2CC2)c1` [Example 5, 5-(4-cyclopropyl-1H-imidazole-1-yl)-2-fluoro-N-(6-(4,5,6,7,8,9-hexahydro-1H-cycloocta[d][1,2,3]triazole-1-yl)pyridine-2-yl)-4-methylbenzamide], the IC50 was found to be 198 nM.

Take `COc1cc(C)c(-n2cnc(C3CC3)c2)cc1C(=O)Nc1cccc(-n2nnc3c2CCC3)n1` [Example 8, 5-(4-cyclopropyl-1H-imidazol-1-yl)-N-(6-(5,6-dihydrocyclopenta[d][1,2,3]triazol-1 (4H)-yl)pyridin-2-yl)-2-methoxy-4-methylbenzamide]: the remaining activity at 0.5 µM came out at 0%.

As to `COc1ccc(-n2cnc(C3CC3)c2)cc1C(=O)Nc1cccc(-n2nnc3c2CCC3)n1` [Example 6, 5-(4-cyclopropyl-1H-imidazol-1-yl)-N-(6-(5,6-dihydrocyclopenta[d][1,2,3]triazol-1 (4H)-yl)pyridin-2-yl)-2-methoxybenzamide], the remaining activity at 0.5 µM is 0%.

With `CC(C)Oc1ccc(-n2cnc(C3CC3)c2)cc1C(=O)Nc1cccc(-n2nnc3c2CCC3)n1` [Example 18, 5-(4-cyclopropyl-1H-imidazol-1-yl)-N-(6-(5,6-dihydrocyclopenta[d][1,2,3]triazol-1 (4H)-yl)pyridin-2-yl)-2-isopropoxybenzamide], the remaining activity at 0.5 µM was 11%.

For the compound `COc1cc(C)c(-n2cnc(C3CC3)c2)cc1C(=O)Nc1cccc(-n2nnc3c2CCCC3)n1` [Example 9, 5-(4-cyclopropyl-1H-imidazol-1-yl)-2-methoxy-4-methyl-N-(6-(4,5,6,7-tetrahydro-1H-benzo[d][1,2,3]triazol-1-yl)pyridin-2-yl)benzamide], the remaining activity at 0.5 µM worked out at 0%.

In the case of `Cc1cc(F)c(C(=O)Nc2cccc(-n3nnc4ccccc43)n2)cc1-n1cnc(C2CC2)c1` [Example 1, N-(6-(1H-benzo[d][1,2,3]triazole-1-yl)pyridine-2-yl)-5-(4-cyclopropyl-1H-imidazole-1-yl)-2-fluoro-4-methylbenzamide], the IC50 is 235 nM and the remaining activity at 0.5 µM is 14%.

Take `Cc1cc(OC(F)F)c(C(=O)Nc2cccc(-n3nnc4c3CCCC4)n2)cc1-n1cnc(C2CC2)c1` [Example 15, 5-(4-cyclopropyl-1H-imidazol-1-yl)-2-(difluoromethoxy)-4-methyl-N-(6-(4,5,6,7-tetrahydro-1H-benzo[d][1,2,3]triazol-1-yl)pyridin-2-yl)benzamide]: the remaining activity at 0.5 µM is 8%.

On to `COc1ccc(-n2cnc(C3CC3)c2)cc1C(=O)Nc1cccc(-n2nnc3c2CCCC3)n1` [Example 7, 5-(4-cyclopropyl-1H-imidazol-1-yl)-2-methoxy-N-(6-(4,5,6,7-tetrahydro-1H-benzo[d][1,2,3]triazol-1-yl)pyridin-2-yl)benzamide], for which the remaining activity at 0.5 µM was found to be 2%.

Regarding `Cc1cc(OC(F)F)c(C(=O)Nc2cccc(-n3nnc4c3CCC4)n2)cc1-n1cnc(C2CC2)c1` [Example 14, 5-(4-cyclopropyl-1H-imidazol-1-yl)-2-(difluoromethoxy)-N-(6-(5,6-dihydrocyclopenta[d][1,2,3]triazol-1 (4H)-yl)pyridin-2-yl)-4-methylbenzamide], the remaining activity at 0.5 µM amounted to 1%.

`O=C(Nc1cccc(-n2nnc3c2CCC3)n1)c1cc(-n2cnc(C3CC3)c2)ccc1OCC(F)(F)F` [Example 20, 5-(4-cyclopropyl-1H-imidazol-1-yl)-N-(6-(5,6-dihydrocyclopenta[d][1,2,3]triazol-1 (4H)-yl)pyridin-2-yl)-2-(2,2,2-trifluoroethoxy)benzamide]: the remaining activity at 0.5 µM worked out at 3%.

Take `O=C(Nc1cccc(-n2nnc3c2CCCC3)n1)c1cc(-n2cnc(C3CC3)c2)ccc1OCC(F)(F)F` [Example 21, 5-(4-cyclopropyl-1H-imidazol-1-yl)-N-(6-(4,5,6,7-tetrahydro-1H-benzo[d][1,2,3]triazol-1-yl)pyridin-2-yl)-2-(2,2,2-trifluoroethoxy)benzamide]: the remaining activity at 0.5 µM amounted to 16%.

Consider `CCOc1cc(C)c(-n2cnc(C3CC3)c2)cc1C(=O)Nc1cccc(-n2nnc3c2CCCC3)n1` [Example 11, 5-(4-cyclopropyl-1H-imidazol-1-yl)-2-ethoxy-4-methyl-N-(6-(4,5,6,7-tetrahydro-1H-benzo[d][1,2,3]triazol-1-yl)pyridin-2-yl)benzamide], for which the remaining activity at 0.5 µM turned out to be 29%.

Regarding `CC(C)Oc1ccc(-n2cnc(C3CC3)c2)cc1C(=O)Nc1cccc(-n2nnc3c2CCCC3)n1` [Example 19, 5-(4-cyclopropyl-1H-imidazol-1-yl)-2-isopropoxy-N-(6-(4,5,6,7-tetrahydro-1H-benzo[d][1,2,3]triazol-1-yl)pyridin-2-yl)benzamide], the remaining activity at 0.5 µM was found to be 9%.

`CCOc1ccc(-n2cnc(C3CC3)c2)cc1C(=O)Nc1cccc(-n2nnc3c2CCC3)n1` [Example 16, 5-(4-cyclopropyl-1H-imidazol-1-yl)-N-(6-(5,6-dihydrocyclopenta[d][1,2,3]triazol-1 (4H)-yl)pyridin-2-yl)-2-ethoxybenzamide]: the remaining activity at 0.5 µM came to 11%.
